Like-named read-outs stand apart in the source and are kept apart here.
How the values were obtained:
Format in all cases: in vivo
[1] = tested on: eggplant plant (variety: “Senryo NiGo”); experiment: Spraying of sugar solution during eggplant cultivation; conditions: 0.2% (w/v) sprayed weekly
Procedure: In the process of cultivation of eggplant, an effect of spraying D-psicose was examined.
An eggplant plant (variety: “Senryo NiGo”) was used in an experiment. Eggplant seedlings were transplanted for permanent planting to No. 7 unglazed pots filled with “Hana to Yasai no Tsuchi (garden soil for flowers and vegetables)” and a cultivation test was carried out in a vinyl house equipped with a heating device. As a fertilizer, 4 granules of IB compound fertilizer per pot were given around the roots, and irrigation was carried out by automatically feeding 500 ml of water twice a day. During the cultivation, on a weekly basis, water, a 0.2% (w/v) D-glucose solution or a 0.2 (w/v) D-psicose solution was sprayed onto the whole plant. As for the number of eggplant plants, 10 plants were used for each group, and the cultivation was carried out twice, i.e., in summer (from May 14 to Jul. 15, 2004) and in winter (from Nov. 4, 2004 to Feb. 24, 2005). A survey was carried out with regard to the growth conditions during the cultivation and yield of fruits.

[2] = tested on: strawberry plant (variety: “smile ruby”); experiment: Foliar spraying of sugar on potted strawberry, fruit harvest; conditions: 0.5% (w/v) sprayed three times weekly
Procedure: A strawberry plant (variety: “smile ruby”) was used in an experiment. The strawberry plants were planted in pots and from Feb. 13, 2004, while the cultivation was carried out in a glass house, water or a 0.5% (w/v) sugar solution was sprayed onto the whole plant on a three times weekly basis. As for the types of sugars, D-glucose and D-psicose were used and two pots were cultivated for each test plot. While the cultivation was continued, the number of fruits, the weight of fruits, the sugar content of fruits were measured with regard to the fruits that could be harvested by Mar. 25, 2004.

Vitis vinifera L. = tested on: Vitis vinifera L.
Procedure: Matured branches of “V. vinifera L.” grown outdoors were collected on December 25 during the dormant stage and were prepared to have one bud, and then, each cutting base was immersed in a 0.01, 0.1 or 1% aqueous solution of D-psicose for 24 hours. On the following day December 26, the same procedure as in 1 was carried out. In a control plot, distilled water was used, and to the liquid for treatment, Approach BI was not added. The judgment of bud flush was carried out in accordance with the method in 1. The measurement of bud flush was carried out on about a weekly basis.
In the survey of the bud flush rate, 9 cuttings were used for each plot and the procedure was repeated twice and an average was obtained.

Fusarium oxysporum = experiment: Table 12: plants with or without Fusarium oxysporum, seed and medium treated with D-psicose
[3] = tested on: cherry tomato plant “mini carol”; experiment: Hydroponic growth of cherry tomato with D-psicose 0.001-0.03%; conditions: for number of flower clusters compared with the control plot: control plot 2.0
Procedure: On Jun. 10, 2003, a cherry tomato plant “mini carol” was transplanted for permanent planting to a hydroponic apparatus, and from 7 days after the permanent planting, 4 treated plots (0%, 0.001%, 0.01% and 0.03%) were prepared by adding D-psicose to a nutrient culture solution. A survey was carried out with regard to the growth at […] after the treatment (July 22). […] The fresh weight was larger in the plot of 0.001%, and was smaller in the plot of 0.03% compared with the control plot. When the fresh weight was seen according to the parts, roots and leaves were larger in the plot of 0.001%.

[4] = tested on: rice plant (variety: Nihonbare); experiment: Growth of rice seedlings in hydroponic culture with D-psicose
[5] = Fusarium oxysporum added, D-psicose seed 0.01%, medium 0.01%
[6] = Fusarium oxysporum added, D-psicose seed 0.01%, medium non
[7] = Fusarium oxysporum added, D-psicose seed 0.10%, medium 0.10%
[8] = Fusarium oxysporum added, D-psicose seed 0.10%, medium non
[9] = Fusarium oxysporum without addition, D-psicose seed 0.10%, medium non
[10] = 0.5 mM, hydroponic culture for 10 days

O=C(CO)[C@H](O)[C@H](O)[C@H](O)CO [D-psicose] was tested, and the “significant effect of spraying on cultivation” value ([1]; summer) was “not observed”, the “growth (aerial part weight and underground part weight)” value ([1]; winter) was “promotion of the growth” and the yield of fruits ([1]; winter) was “increase”. The “average weight of fruits” value ([2]; increased from 13.5 g) was 16.6 g, the “number of fruits that could be harvested during the cultivation period” value ([2]; increased from 25) was 38 and the “total weight of fruits that could be harvested” value ([2]; increased from 337.8 g) was 630.3 g. For the same compound, the bud flush rate (Vitis vinifera L.; 0.01%) was “a similar pattern to that of the control plot”, the bud flush rate (Vitis vinifera L.; 0.1%, throughout the whole period) was “the lowest value” and the bud flush rate (Vitis vinifera L.; 1%, after the mid-February) was “the highest value”. For the same compound, the “bud flush rate compared with control plot” value (Vitis vinifera L.; all plots (0.01, 0.1, 1%), until early February) was “lower”, the “state of green branches of grapes in summer after treatment” value (Vitis vinifera L.; in vivo) was “withered and dead” and the Aerial part weight (Fusarium oxysporum; [5]) was 3.1 g. The Leaf browning ratio (Fusarium oxysporum; [5]) was 5%, the Plant length (Fusarium oxysporum; [5]) was 17.6 cm and the Survival rate (Fusarium oxysporum; [5]) was 50%. For the same compound, the “Vascular bundle browning ratio” value (Fusarium oxysporum; [5]) was 45%, the Aerial part weight (Fusarium oxysporum; [6]) was 1.9 g and the Leaf browning ratio (Fusarium oxysporum; [6]) was 100%. The Plant length (Fusarium oxysporum; [6]) was 14.5 cm, the Survival rate (Fusarium oxysporum; [6]) was 28% and the “Vascular bundle browning ratio” value (Fusarium oxysporum; [6]) was 39%. It also gave an Aerial part weight (Fusarium oxysporum; [7]) of 3.3 g, a Leaf browning ratio (Fusarium oxysporum; [7]) of 13% and a Plant length (Fusarium oxysporum; [7]) of 13.8 cm. The Survival rate (Fusarium oxysporum; [7]) was 25%, the “Vascular bundle browning ratio” value (Fusarium oxysporum; [7]) was 38% and the Aerial part weight (Fusarium oxysporum; [8]) was 2.2 g. The Leaf browning ratio (Fusarium oxysporum; [8]) was 100%, the Plant length (Fusarium oxysporum; [8]) was 13.9 cm and the Survival rate (Fusarium oxysporum; [8]) was 16%. The “Vascular bundle browning ratio” value (Fusarium oxysporum; [8]) was 60%, the Aerial part weight (Fusarium oxysporum; [9]) was 2.2 g and the Leaf browning ratio (Fusarium oxysporum; [9]) was 0%. The Plant length (Fusarium oxysporum; [9]) was 17.8 cm, the Survival rate (Fusarium oxysporum; [9]) was 100% and the “Vascular bundle browning ratio” value (Fusarium oxysporum; [9]) was 0%. For the same compound, the “fresh weight compared with the control plot” value ([3]; 0.001%) was “larger”, the “maximum root length compared with the control plot” value ([3]; 0.001%) was “slightly longer” and the “number of leaves compared with the control plot” value ([3]; 0.001%) was “slightly larger”. For the same compound, the “stem length compared with the control plot” value ([3]; 0.001% in nutrient culture solution) was “slightly longer”, the “number of flower clusters compared with the control plot” value ([3]; 0.001%) was “slightly larger” and the “maximum root length compared with the control plot” value ([3]; 0.01%) was “slightly shorter”. For the same compound, the “stem diameter compared with the control plot” value ([3]; 0.01%) was “slightly larger”, the “stem length compared with the control plot” value ([3]; 0.01%) was “slightly longer” and the “fresh weight compared with the control plot” value ([3]; 0.03%) was “smaller”. For the same compound, the “maximum root length compared with the control plot” value ([3]; 0.03%) was “slightly shorter”, the “number of leaves compared with the control plot” value ([3]; 0.03%) was “slightly smaller” and the “stem diameter compared with the control plot” value ([3]; 0.03%) was “slightly smaller”. For the same compound, the “stem length compared with the control plot” value ([3]; 0.03%) was “slightly shorter”, the “number of flower clusters compared with the control plot” value ([3]; 0.03%) was “slightly smaller” and the Number of roots ([4]; 0.5 mM) was “no change”. For the same compound, the Number of roots ([4]; 0.5 mM D-psicose, Day 10 after germination, non-treated 7.00 ± 0.6) was 7.00 ± 0.6 roots, the Seed root length ([4]; 0.5 mM D-psicose, Day 10 after germination, non-treated 7.58 ± 0.23) was 5.15 ± 0.26 cm and the Plant length ([4]; 0.5 mM D-psicose, Day 10 after germination, non-treated 12.08 ± 0.21) was 5.29 ± 0.58 cm. For the same compound, the “root length inhibited by” value [4, 10] was 67%, the “seedling length inhibited by” value [4, 10] was 43% and the “Plant length, percentage of the relative value to untreated plot” value ([4]; 7 days (1 week) after transplantation to pot, after 0.5 mM D-psicose) was 52.4%. It also gave a Plant length ([4]; 7 days after transplantation to pot, after 0.5 mM D-psicose treatment, untreated 31.4 ± 0.5) of 16.5 ± 2.4 cm, a Plant length ([4]; 14 days after transplantation to pot, after 0.5 mM D-psicose treatment, untreated 44.7 ± 0.1) of 35.3 ± 2.1 cm and an inhibition at 100 µM ([4]; Oryza sativa, 0.1 mM) of 30%. For the same compound, the “time to recover to the size equal to that of the untreated plot after transplanting to soil” value ([4]; after 0.5 mM treatment, raised without D-psicose) was “about 3 weeks” and the “growth relative to the untreated plot” value ([4]; until 0.05 mM (0.005 to 0.05 mM)) was greater than 98%.
